For one series, the target named is CDK1/cyclin B (Homo sapiens, UniProt P06493). The experiment in a line: Kinase assay CDK1/cyclin B. Format: biochemical. The settings on record: Table 2; read-out: Kinase Inhibition IC50 CDK1 cyclin B. A digest of the protocol:
(§1)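 Recombinant kinase (2-4 μg) with polypeptide substrate in pH 7.4 MOPS/β-glycerophosphate buffer; started with 15 mM MgCl2 + 100 μM ATP plus [γ-32P]-ATP, incubated at 30° C. Stopped on ice, filtered, washed in orthophosphoric acid; incorporated 32P counted by scintillation.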

The next series concerns the target CDK2/cyclin A (Homo sapiens, UniProt P24941). Nature of the series: Kinase assay CDK2/cyclin A. Format: biochemical. The conditions noted are these: Table 2; read-out: Kinase Inhibition IC50 CDK2 cyclin A. Put shortly:
as §1

The target of the next series is CDK7/cyclin H (Homo sapiens, UniProt P50613). The experiment in a line: CDK7 assay. Format: biochemical. The conditions noted are these: Table 2; read-out: Kinase Inhibition IC50 CDK7 cyclin H. Put shortly:
(§2)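 Radiometric filter-binding format: test compound at varying amounts incubated with CTD peptide (biotinyl-Ahx-(YSPTSPS)4-NH2) and either CDK9/cyclin T1 or CDK7/cyclin H, using 100 μM ATP spiked with 32P, 45 min, 30 °C, pH 7.2. Reactions were stopped on ice, bound to avidin, filtered on P81 plates and scintillation-counted.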

A further series concerns the target CDK4/cyclin D1 (Homo sapiens, UniProt P11802). Nature of the series: Kinase assay CDK4/cyclin D1. The conditions noted are these: Table 2; read-out: Kinase Inhibition IC50 CDK4 cyclin D1. Format: biochemical. Put shortly:
as §1

Another series concerns the target CDK2/cyclin E (Homo sapiens, UniProt P24941). The experiment in a line: Kinase assay CDK2/cyclin E. The settings on record: Table 2; read-out: Kinase Inhibition IC50 CDK2 cyclin E. Format: biochemical. Put shortly:
as §1

The subject of a further series is A549. Nature of the series: 72-h MTT cytotoxicity assay A549. Format: cell-based. The settings on record: Homo sapiens, A549, 72 h, Table 4. A digest of the protocol:
(§3)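 MTT viability, 72 h compound exposure at 37° C; triplicate wells, 1/3 serial dilutions from DMSO stocks; seeding density per doubling time; MTT 4 h in dark; DMSO solubilisation.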

The next series concerns Saos-2. Nature of the series: 72-h MTT cytotoxicity assay Saos-2. Format: cell-based. The conditions noted are these: Homo sapiens, SAOS-2, 72 h, Table 4. Put shortly: as §3
For orientation: Formazan colour is commonly taken as a measure of viable cells.

In the next series the test system is HT29. The experiment in a line: 72-h MTT cytotoxicity assay HT29. The conditions noted are these: Homo sapiens, HT-29, 72 h, Table 4. Format: cell-based. Put shortly: as §3
A further series has as its target PLK-1 (Homo sapiens, UniProt P53350). The experiment in a line: Kinase assay PLK-1. Format: biochemical. The settings on record: Table 2; read-out: Kinase Inhibition IC50 PLK-1. As for the experimental part:
Kinase assays. […] This was achieved by measurement of incorporation of radioactive phosphate from ATP into appropriate polypeptide substrates. Recombinant protein kinases and kinase complexes were produced or obtained commercially. Assays were performed using 96-well plates and appropriate assay buffers (typically 25 mM β-glycerophosphate, 20 mM MOPS, 5 mM EGTA, 1 mM DTT, 1 mM […], pH 7.4), into which were added 2-4 μg of active enzyme with appropriate substrates. The reactions were initiated by addition of Mg/ATP mix (15 mM MgCl2+100 μM ATP with 30-50 kBq per well of [γ-^32P]-ATP) and mixtures incubated as required at 30° C. Reactions were stopped on ice, followed by filtration through p81 filterplates or GF/C filterplates (Whatman Polyfiltronics, Kent, UK). After washing 3 times with 75 mM aq orthophosphoric acid, plates were dried, scintillant added and incorporated radioactivity measured in a scintillation counter (TopCount, Packard Instruments, Pangbourne, Berks, UK). Compounds for kinase assay were made-up as 10 mM stocks in DMSO and diluted into 10% DMSO inrassay buffer.

For a further series, the target named is GSK-3β (Homo sapiens, UniProt P49841). Nature of the series: Kinase assay GSK-3β. Format: biochemical. The settings on record: Table 2; read-out: Kinase Inhibition IC50 GSK-3β. Put shortly: as §1
The target of a further series is CDK9/cyclin T1 (Homo sapiens, UniProt P50750). Nature of the series: CDK9 assay. Format: biochemical. The conditions noted are these: Table 2; read-out: Kinase Inhibition IC50 CDK9 cyclin T1. A digest of the protocol: as §2

SMILES strings stand for the structures.

Chain of CDK9/cyclin T1 (P50750 whole entry): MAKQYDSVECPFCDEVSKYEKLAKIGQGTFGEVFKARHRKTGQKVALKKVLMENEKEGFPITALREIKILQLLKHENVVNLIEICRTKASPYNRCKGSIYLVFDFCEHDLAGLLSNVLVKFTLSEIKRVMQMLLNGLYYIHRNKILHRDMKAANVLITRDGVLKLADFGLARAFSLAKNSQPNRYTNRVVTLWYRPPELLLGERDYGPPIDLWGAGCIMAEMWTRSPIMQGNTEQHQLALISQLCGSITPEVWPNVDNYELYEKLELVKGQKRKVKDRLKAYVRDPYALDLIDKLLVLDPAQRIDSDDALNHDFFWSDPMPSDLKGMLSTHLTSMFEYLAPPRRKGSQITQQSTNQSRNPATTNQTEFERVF
Chain of CDK9/cyclin T1 (O60563 whole entry partner): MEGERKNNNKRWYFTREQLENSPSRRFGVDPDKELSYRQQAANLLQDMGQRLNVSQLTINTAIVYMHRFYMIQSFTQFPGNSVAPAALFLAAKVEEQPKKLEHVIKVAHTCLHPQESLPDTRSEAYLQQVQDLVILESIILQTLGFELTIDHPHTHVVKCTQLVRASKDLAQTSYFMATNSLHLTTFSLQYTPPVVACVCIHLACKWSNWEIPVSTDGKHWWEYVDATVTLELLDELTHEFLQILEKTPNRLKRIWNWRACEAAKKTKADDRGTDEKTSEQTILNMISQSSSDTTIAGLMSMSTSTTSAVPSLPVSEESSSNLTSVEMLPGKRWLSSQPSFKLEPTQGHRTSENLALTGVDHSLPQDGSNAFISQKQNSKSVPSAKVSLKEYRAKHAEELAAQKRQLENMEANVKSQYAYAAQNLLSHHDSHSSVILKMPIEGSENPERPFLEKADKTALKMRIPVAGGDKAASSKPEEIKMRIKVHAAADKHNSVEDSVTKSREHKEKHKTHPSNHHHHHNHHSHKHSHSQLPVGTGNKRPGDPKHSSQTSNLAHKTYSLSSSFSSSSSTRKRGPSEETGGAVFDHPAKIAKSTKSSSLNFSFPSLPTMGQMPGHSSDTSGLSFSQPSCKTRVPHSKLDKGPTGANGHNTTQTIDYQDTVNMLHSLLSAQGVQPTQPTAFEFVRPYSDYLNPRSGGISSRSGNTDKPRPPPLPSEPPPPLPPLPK
Chain of PLK-1 (P53350 whole entry): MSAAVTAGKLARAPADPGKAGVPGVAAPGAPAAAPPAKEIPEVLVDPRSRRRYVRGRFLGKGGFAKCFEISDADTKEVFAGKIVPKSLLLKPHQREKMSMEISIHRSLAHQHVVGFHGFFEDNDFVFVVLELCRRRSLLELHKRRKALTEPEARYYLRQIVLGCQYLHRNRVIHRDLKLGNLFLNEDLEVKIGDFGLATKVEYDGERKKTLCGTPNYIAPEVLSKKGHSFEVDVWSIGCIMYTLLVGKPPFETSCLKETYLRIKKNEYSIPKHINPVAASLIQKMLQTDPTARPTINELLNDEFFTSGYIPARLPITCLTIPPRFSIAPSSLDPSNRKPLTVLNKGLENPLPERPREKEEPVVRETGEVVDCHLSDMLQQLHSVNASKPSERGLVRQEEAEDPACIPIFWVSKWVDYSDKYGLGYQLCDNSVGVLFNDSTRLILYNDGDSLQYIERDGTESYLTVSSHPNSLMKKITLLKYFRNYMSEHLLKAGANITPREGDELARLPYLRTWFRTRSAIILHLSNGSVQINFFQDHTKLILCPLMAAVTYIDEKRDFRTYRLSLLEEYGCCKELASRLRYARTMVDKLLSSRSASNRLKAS
Chain of CDK7/cyclin H (P50613 whole entry): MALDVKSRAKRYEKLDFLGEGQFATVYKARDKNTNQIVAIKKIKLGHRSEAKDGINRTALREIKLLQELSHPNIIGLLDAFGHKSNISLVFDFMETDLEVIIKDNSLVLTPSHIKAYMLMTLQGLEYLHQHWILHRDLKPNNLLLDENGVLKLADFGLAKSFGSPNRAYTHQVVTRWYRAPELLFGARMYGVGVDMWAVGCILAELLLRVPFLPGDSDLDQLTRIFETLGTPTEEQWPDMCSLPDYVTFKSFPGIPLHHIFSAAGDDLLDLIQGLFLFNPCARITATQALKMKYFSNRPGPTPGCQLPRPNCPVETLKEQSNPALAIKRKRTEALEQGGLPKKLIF
Chain of GSK-3β (P49841 whole entry): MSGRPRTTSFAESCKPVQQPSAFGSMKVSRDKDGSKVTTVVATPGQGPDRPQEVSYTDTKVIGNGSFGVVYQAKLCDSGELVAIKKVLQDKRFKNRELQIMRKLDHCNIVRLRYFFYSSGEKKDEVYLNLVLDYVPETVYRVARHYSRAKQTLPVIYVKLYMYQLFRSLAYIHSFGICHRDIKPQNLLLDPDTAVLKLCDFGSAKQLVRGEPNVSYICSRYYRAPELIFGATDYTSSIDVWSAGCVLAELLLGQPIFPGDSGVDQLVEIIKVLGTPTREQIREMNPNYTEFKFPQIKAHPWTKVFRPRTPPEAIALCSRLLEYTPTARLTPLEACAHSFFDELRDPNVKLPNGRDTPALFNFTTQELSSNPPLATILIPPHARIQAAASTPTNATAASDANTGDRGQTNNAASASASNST
Chain of CDK4/cyclin D1 (P11802 whole entry): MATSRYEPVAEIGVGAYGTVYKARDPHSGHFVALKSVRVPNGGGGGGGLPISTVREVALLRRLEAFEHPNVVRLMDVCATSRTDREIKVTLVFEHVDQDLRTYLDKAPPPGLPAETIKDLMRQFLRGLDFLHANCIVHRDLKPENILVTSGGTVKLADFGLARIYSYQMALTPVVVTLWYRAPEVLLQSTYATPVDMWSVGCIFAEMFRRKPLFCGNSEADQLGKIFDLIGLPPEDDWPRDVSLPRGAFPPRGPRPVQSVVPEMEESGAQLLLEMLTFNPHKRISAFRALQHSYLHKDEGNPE
Chain of CDK4/cyclin D1 (P24385 whole entry partner): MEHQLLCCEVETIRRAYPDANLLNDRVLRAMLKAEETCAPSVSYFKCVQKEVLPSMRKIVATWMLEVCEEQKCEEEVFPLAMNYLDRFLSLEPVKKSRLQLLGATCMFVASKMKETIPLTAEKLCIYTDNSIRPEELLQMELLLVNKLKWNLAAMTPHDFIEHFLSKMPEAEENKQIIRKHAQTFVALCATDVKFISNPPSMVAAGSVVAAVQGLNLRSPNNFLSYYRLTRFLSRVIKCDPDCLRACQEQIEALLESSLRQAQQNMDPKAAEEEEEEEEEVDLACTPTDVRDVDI
Chain of CDK1/cyclin B (P06493 whole entry): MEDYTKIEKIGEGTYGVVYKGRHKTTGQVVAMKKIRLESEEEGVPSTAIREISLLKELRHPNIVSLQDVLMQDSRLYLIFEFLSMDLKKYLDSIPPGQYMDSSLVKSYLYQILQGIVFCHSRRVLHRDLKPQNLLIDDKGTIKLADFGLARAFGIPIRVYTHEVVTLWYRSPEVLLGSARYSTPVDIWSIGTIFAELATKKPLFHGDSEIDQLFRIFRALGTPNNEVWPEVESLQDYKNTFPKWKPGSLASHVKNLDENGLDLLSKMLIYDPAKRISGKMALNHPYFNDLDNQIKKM
Chain of CDK1/cyclin B (P14635 whole entry partner): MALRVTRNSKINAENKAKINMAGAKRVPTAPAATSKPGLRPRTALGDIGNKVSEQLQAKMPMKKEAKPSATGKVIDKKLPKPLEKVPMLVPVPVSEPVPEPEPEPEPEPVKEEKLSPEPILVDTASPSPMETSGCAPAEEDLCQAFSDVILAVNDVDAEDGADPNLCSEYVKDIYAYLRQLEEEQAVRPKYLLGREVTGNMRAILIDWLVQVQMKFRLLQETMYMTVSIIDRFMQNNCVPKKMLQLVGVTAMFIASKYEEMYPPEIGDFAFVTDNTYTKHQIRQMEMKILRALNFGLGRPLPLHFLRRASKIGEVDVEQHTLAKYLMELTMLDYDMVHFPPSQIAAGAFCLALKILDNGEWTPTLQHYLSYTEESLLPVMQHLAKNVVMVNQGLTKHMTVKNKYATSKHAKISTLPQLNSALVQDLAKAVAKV

As a reminder, the IC50 is the midpoint of a concentration-inhibition curve. For orientation: melting point means the temperature of the solid-liquid transition. Regarding `CC(=O)NCc1cccc(Nc2nccc(-c3sc(C)nc3C)n2)c1` [Compound 66, N-{3-[4-(2,4-Dimethyl-thiazol-5-yl)-pyrimidin-2-ylamino]-benzyl}-acetamide], the melting point was in the range of 206 to 207 °C. Besides, at CDK1/cyclin B, the IC50 worked out at 120 nM. Further, the IC50 on CDK2/cyclin A was 100 nM. Also, the IC50 on CDK7/cyclin H turned out to be 2100 nM. The IC50 on CDK4/cyclin D1 amounted to 630 nM. Moreover, at CDK2/cyclin E, the IC50 was 110 nM.
Take `CNc1nc(C)c(-c2ccnc(Nc3cccc(CN)c3)n2)s1` [Compound 67, (3-Aminomethyl-phenyl)-[4-(4-methyl-2-methylamino-thiazol-5-yl)-pyrimidin-2-yl]-amine]: the melting point lay within 287 to 289 °C. Also, it took 14000 nM to reach half-maximal inhibition in the series with A549 (IC50). The same compound gave an IC50 in the series on Saos-2 of 1100 nM. This compound yielded an IC50 in the series on HT29 of 14000 nM. Also, at CDK4/cyclin D1, the IC50 amounted to 240 nM. In addition, the IC50 on PLK-1 is above 100000 nM. Further, at CDK2/cyclin E, the IC50 was 420 nM.
In turn, `CCNc1nc(C)c(-c2ccnc(Nc3cccc(CN)c3)n2)s1` [Compound 65, (3-Aminomethyl-phenyl)-[4-(2-ethylamino-4-methyl-thiazol-5-yl)-pyrimidin-2-yl]-amine] gave a melting point of 290 to 292 °C. The compound also yielded an IC50 in the series with A549 of 3200 nM. This compound showed an IC50 in the series on Saos-2 of 650 nM. In the series with HT29, this compound returned an IC50 of 4800 nM. On CDK4/cyclin D1, the IC50 is 110 nM. Moreover, the IC50 on PLK-1 is above 100000 nM. Also, the IC50 at CDK2/cyclin E came out at 330 nM.
Compound `CNc1nc(C)c(-c2ccnc(Nc3ccc(CCO)cc3)n2)s1` [Compound 59, 2-{4-[4-(4-Methyl-2-methylamino-thiazol-5-yl)-pyrimidin-2-ylamino]-phenyl}-ethanol] came in with a melting point of 216 to 218 °C. The IC50 at CDK1/cyclin B was 710 nM. The compound further registered an IC50 in the series with A549 of 2400 nM. This compound also displayed an IC50 in the series on Saos-2 of 1900 nM. The IC50 on CDK2/cyclin A worked out at 110 nM. The half-maximal inhibitory concentration (IC50) on CDK7/cyclin H was determined as 2600 nM. Moreover, the IC50 in the series on HT29 amounted to 1700 nM. Besides, at CDK4/cyclin D1, the IC50 is 86 nM. Besides, the IC50 at GSK-3β came out at 2200 nM. Moreover, at CDK9/cyclin T1, the IC50 is 470 nM. The IC50 at CDK2/cyclin E stood at 140 nM.
Consider `CNc1nc(C)c(-c2ccnc(Nc3cccc(CNC(C)=O)c3)n2)s1` [Compound 63, N-{3-[4-(4-Methyl-2-methylamino-thiazol-5-yl)-pyrimidin-2-ylamino]-benzyl}-acetamide], for which the melting point was 253 to 255 °C. In addition, the IC50 at CDK1/cyclin B amounted to 48000 nM. This compound yielded an IC50 with A549 of 980 nM. The IC50 with Saos-2 was 1200 nM. Besides, the IC50 at CDK2/cyclin A came out at 12000 nM. For the same compound, on CDK7/cyclin H, the IC50 stood at 20000 nM. In the series with HT29, this compound had an IC50 of 1400 nM. In addition, the IC50 at CDK4/cyclin D1 came to 7700 nM. In addition, at PLK-1, the IC50 stood at 46000 nM. Further, the IC50 at GSK-3β amounted to 8800 nM. Further, the IC50 at CDK9/cyclin T1 was 2700 nM.
For `Cc1nc(C)c(-c2ccnc(Nc3ccc(N4CCN(CCCO)CC4)cc3)n2)s1` [Compound 8, 3-(4-{4-[4-(2,4-Dimethyl-thiazol-5-yl)-pyrimidin-2-ylamino]-phenyl}-piperazin-1-yl)-propan-1-ol], the IC50 at CDK1/cyclin B is 4900 nM; in the series with A549, 610 nM; with Saos-2, 380 nM; at CDK2/cyclin A, 1100 nM; at CDK7/cyclin H it was 970 nM; with HT29 it was 800 nM. Further, the concentration for half-maximal inhibition (IC50) at CDK4/cyclin D1 was 360 nM; at PLK-1, above 150000 nM; on GSK-3β, 39000 nM; at CDK9/cyclin T1, 510 nM; at CDK2/cyclin E, 1200 nM.
`Cc1nc(C)c(-c2ccnc(Nc3ccc(NC(=O)CCl)cc3)n2)s1` [Compound 50, 2-Chloro-N-{4-[4-(2,4-dimethyl-thiazol-5-yl)-pyrimidin-2-ylamino]-phenyl}-acetamide] showed a melting point of 217 to 219 °C. The IC50 on CDK1/cyclin B was determined as 3400 nM. In addition, the IC50 in the series with A549 came out at 160 nM. Further, in the series with Saos-2, the half-inhibitory concentration (IC50) was 160 nM. Also, on CDK2/cyclin A, the IC50 was 890 nM. The IC50 at CDK7/cyclin H was found to be 13000 nM. Moreover, the IC50 in the series with HT29 is 160 nM. For the same compound, the IC50 on CDK4/cyclin D1 was found to be 950 nM. The IC50 on CDK9/cyclin T1 stood at 1.8 nM. Further, the IC50 on CDK2/cyclin E stood at 390 nM.
Regarding `Cc1nc(NC(=O)CCN2CCOCC2)sc1-c1ccnc(Nc2ccc(F)cc2)n1` [Compound 21, N-{5-[2-(4-Fluoro-phenylamino)-pyrimidin-4-yl]-4-methyl-thiazol-2-yl}-3-morpholin-4-yl-propionamide], the IC50 on CDK1/cyclin B is 540 nM; with A549 it was 8600 nM; in the series on Saos-2 it was 4300 nM; at CDK2/cyclin A, 320 nM; at CDK7/cyclin H, 4900 nM; in the series on HT29, 4100 nM. Moreover, the IC50 on CDK4/cyclin D1 was 1300 nM; on PLK-1, above 200000 nM; on GSK-3β, 14000 nM; at CDK9/cyclin T1 it was 460 nM; on CDK2/cyclin E, 97 nM.
As to `Cc1nc(N2CCOCC2)sc1-c1ccnc(Nc2ccc(N3CCOCC3)cc2)n1` [Compound 56, [4-(4-Methyl-2-morpholin-4-yl-thiazol-5-yl)-pyrimidin-2-yl]-(4-morpholin-4-yl-phenyl)-amine], the melting point was in the range of 229 to 231 °C. Further, the 50% inhibitory concentration (IC50) on CDK1/cyclin B was 18000 nM. In the series on A549, this compound returned an IC50 of 4400 nM. In addition, the midpoint of inhibition in the series on Saos-2, the IC50, lay at 5000 nM. Besides, the IC50 at CDK2/cyclin A turned out to be 68000 nM. Moreover, the 50% inhibitory concentration (IC50) on CDK7/cyclin H turned out to be 850 nM. For the same compound, the 50% inhibitory concentration (IC50) in the series on HT29 worked out at 2900 nM. Besides, at CDK4/cyclin D1, the IC50 amounted to 22 nM. Also, on GSK-3β, the IC50 was above 100000 nM. Also, the IC50 on CDK9/cyclin T1 was 17000 nM. Moreover, on CDK2/cyclin E, the concentration for half-maximal inhibition (IC50) is 600 nM.

Source of the values: patent US7432260B2, “Pyrimidine compounds” (Cyclacel Limted, priority 2002, dated 2008).
